Experimental data taken from patent US20230227466A1, “SUBSTITUTED THIENOPYRIMIDINES THAT INTERACT WITH THE RAS SUPERFAMILY FOR THE TREATMENT OF CANCERS, INFLAMMATORY DISEASES, RASOPATHIES, AND FIBROTIC DISEASE” (SHY Therapeutics, LLC, priority 2020, published 2023).
Where two headings read alike, the source gives them in different places.

Tests used:
Assay in all cases: Ras GTP binding domain inhibition assay (labeled-GTP competition, cell-free)
[1] = target: Rac-1 (Homo sapiens, UniProt P63000); parameters: made in house
In short: (§1)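 Labeled-GTP competition read out as bound Cy3/Cy5-GTP fluorescence after washes, with 100 nM tracer for 45 min at RT. Before tracer, compounds at 20 μM, or a dilution series for IC50, sat 3 h at RT on the Ni-immobilized His-tagged GTPase. Sos GEF (10-30 μg/mL) was optionally present for the last hour.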

[2] = target: Rho-A (Homo sapiens, UniProt P61586); parameters: made in house
In short: as §1

[3] = target: KRas wild type (Homo sapiens, UniProt P01116); parameters: made in house
In short: as §1

[4] = target: T1, KRas Q61H mutant (Homo sapiens, UniProt P01116, Q61H)
T1 construct: made in house
In short: as §1

[5] = target: T2, KRas G12C mutant (Homo sapiens, UniProt P01116, G12C)
T2 construct: made in house
In short: as §1

[6] = target: T3, KRas G12D mutant (Homo sapiens, UniProt P01116, G12D)
T3 construct: made in house
In short: as §1

[7] = with SOS, read-out: Rac-1 + SOS: % inh.
[8] = without SOS, read-out: Rac-1: % inh.
[9] = with SOS, read-out: Rho-A + SOS: % inh.
[10] = without SOS, read-out: Rho-A: % inh.
[11] = with SOS, read-out: KRas wild type + SOS: % inh.
[12] = without SOS, read-out: KRas wild type: % inh.
[13] = with SOS, read-out: KRas Q61H mutant + SOS: % inh.
[14] = without SOS, read-out: KRas Q61H mutant: % inh.
[15] = with SOS, read-out: KRas G12C mutant + SOS: % inh.
[16] = without SOS, read-out: KRas G12C mutant: % inh.
[17] = with SOS, read-out: KRas G12D mutant + SOS: % inh.
[18] = without SOS, read-out: KRas G12D mutant: % inh.

inhibition at 20 µM [1, 7] | inhibition at 20 µM [1, 8] | inhibition at 20 µM [2, 9] | inhibition at 20 µM [2, 10] | inhibition at 20 µM [3, 11] | inhibition at 20 µM [3, 12] | inhibition at 20 µM [4, 13] | inhibition at 20 µM [4, 14] | IC50 ([4]; with SOS) | inhibition at 20 µM [5, 15] | inhibition at 20 µM [5, 16] | inhibition at 20 µM [6, 17] | inhibition at 20 µM [6, 18] | SMILES
26 to 50% | 26 to 50% | 26 to 50% | 51 to 75% | 1 to 25% | 26 to 50% | 26 to 50% | 26 to 50% | > 10 µM | 26 to 50% | 26 to 50% | 26 to 50% | 26 to 50% | COCCNC(=O)c1nc(O)c2scc(-c3ccccn3)c2n1 [Compound 21, 4-Hydroxy-N-(2-methoxyethyl)-7-(pyridin-2-yl)thieno[3,2-d]pyrimidine-2-carboxamide]
1 to 25% | 1 to 25% | 1 to 25% | 1 to 25% | 1 to 25% | 1 to 25% | 1 to 25% | 1 to 25% | > 10 µM | 0% | 1 to 25% | 0% | 1 to 25% | O=C(c1nc(O)c2scc(-c3ccccn3)c2n1)N1CCOCC1 [Compound 22, (4-Hydroxy-7-(pyridin-2-yl)thieno[3,2-d]pyrimidin-2-yl)(morpholino)methanone]
1 to 25% | 1 to 25% | 1 to 25% | 1 to 25% | 1 to 25% | 1 to 25% | 1 to 25% | 0% | > 10 µM | 0% | 1 to 25% | 1 to 25% | 1 to 25% | O=C(Nc1ccccc1)c1nc(O)c2scc(-c3ccccn3)c2n1 [Compound 23, 4-Hydroxy-N-phenyl-7-(pyridin-2-yl)thieno[3,2-d]pyrimidine-2-carboxamide]
1 to 25% | 0% | 1 to 25% | 1 to 25% | 1 to 25% | 1 to 25% | 0% | 1 to 25% | > 10 µM | 1 to 25% | 1 to 25% | 0% | 1 to 25% | O=C(Nc1ccccn1)c1nc(O)c2scc(-c3ccccn3)c2n1 [Compound 24, 4-Hydroxy-N,7-di(pyridin-2-yl)thieno[3,2-d]pyrimidine-2-carboxamide]
76 to 100% | 76 to 100% | 76 to 100% | 76 to 100% | 51 to 75% | 76 to 100% | 76 to 100% | 76 to 100% | 5 to 10 µM | 76 to 100% | 76 to 100% | 76 to 100% | 76 to 100% | Cc1sc2c(O)nc(-c3ccccn3)nc2c1-c1ccccn1 [Compound 26, 6-Methyl-2,7-di(pyridin-2-yl)thieno[3,2-d]pyrimidin-4-ol]
51 to 75% | 51 to 75% | 76 to 100% | 76 to 100% | 76 to 100% | 76 to 100% | 76 to 100% | 51 to 75% | 1 to 4.99 µM | 76 to 100% | 51 to 75% | 51 to 75% | 51 to 75% | Cn1ccnc1-c1nc(O)c2scc(-c3ncccc3F)c2n1 [Compound 30, 7-(3-Fluoropyridin-2-yl)-2-(1-methyl-1H-imidazol-2-yl)thieno[3,2-d]pyrimidin-4-ol]
26 to 50% | – | 51 to 75% | 51 to 75% | 76 to 100% | 26 to 50% | 76 to 100% | 26 to 50% | 1 to 4.99 µM | 76 to 100% | 51 to 75% | 76 to 100% | 26 to 50% | CO[C@@H]1CC[C@H](Nc2nc(-c3nccn3C)nc3sc(-c4ccn(C(C)C)n4)c(C)c23)C1 [Compound 31, 6-(1-Isopropyl-1H-pyrazol-3-yl)-N-((1S,3R)-3-methoxycyclopentyl)-5-methyl-2-(1-methyl-1H-imidazol-2-yl)thieno[2,3-d]pyrimidin-4-amine]
26 to 50% | 26 to 50% | 51 to 75% | 51 to 75% | 76 to 100% | 76 to 100% | 76 to 100% | 51 to 75% | 1 to 4.99 µM | 76 to 100% | 51 to 75% | 76 to 100% | 26 to 50% | CO[C@H]1CC[C@@H](Nc2nc(-c3nccn3C)nc3sc(-c4ccn(C(C)C)n4)c(C)c23)C1 [Compound 32, 6-(1-Isopropyl-1H-pyrazol-3-yl)-N-((1R,3S)-3-methoxycyclopentyl)-5-methyl-2-(1-methyl-1H-imidazol-2-yl)thieno[2,3-d]pyrimidin-4-amine]
76 to 100% | 76 to 100% | 76 to 100% | 76 to 100% | 76 to 100% | 76 to 100% | 76 to 100% | 76 to 100% | – | 76 to 100% | 76 to 100% | 76 to 100% | 76 to 100% | COCCNc1nc(-c2nccn2C)nc2sc(-c3ccn(C(C)C)n3)c(C)c12 [Compound 35, 6-(1-Isopropyl-1H-pyrazol-3-yl)-N-(2-methoxyethyl)-5-methyl-2-(1-methyl-1H-imidazol-2-yl)thieno[2,3-d]pyrimidin-4-amine]
51 to 75% | 51 to 75% | 76 to 100% | 76 to 100% | 51 to 75% | 76 to 100% | 76 to 100% | 51 to 75% | – | 51 to 75% | 51 to 75% | 76 to 100% | 51 to 75% | CO[C@H]1CN(c2nc(-c3nccn3C)nc3sc(-c4ccn(C(C)C)n4)c(C)c23)C[C@H]1OC [Compound 39, rac-4-((3S,4R)-3,4-Dimethoxypyrrolidin-1-yl)-6-(1-isopropyl-1H-pyrazol-3-yl)-5-methyl-2-(1-methyl-1H-imidazol-2-yl)thieno[2,3-d]pyrimidine]
51 to 75% | 51 to 75% | 76 to 100% | 51 to 75% | 76 to 100% | 51 to 75% | 76 to 100% | 76 to 100% | – | 76 to 100% | 76 to 100% | 51 to 75% | 76 to 100% | CO[C@H]1C[C@@H](Nc2nc(-c3nccn3C)nc3sc(-c4ccn(C(C)C)n4)c(C)c23)C[C@H]1OC [Compound 42, N-((1r,3R,4S)-3,4-Dimethoxycyclopentyl)-6-(1-isopropyl-1H-pyrazol-3-yl)-5-methyl-2-(1-methyl-1H-imidazol-2-yl)thieno[2,3-d]pyrimidin-4-amine]
51 to 75% | 26 to 50% | 76 to 100% | 76 to 100% | 76 to 100% | 26 to 50% | 76 to 100% | 1 to 25% | – | 76 to 100% | 1 to 25% | 76 to 100% | 76 to 100% | CO[C@H]1C[C@H](Nc2nc(-c3nccn3C)nc3sc(-c4ccn(C(C)C)n4)c(C)c23)C[C@H]1OC [Compound 43, N-((1s,3R,4S)-3,4-Dimethoxycyclopentyl)-6-(1-isopropyl-1H-pyrazol-3-yl)-5-methyl-2-(1-methyl-1H-imidazol-2-yl)thieno[2,3-d]pyrimidin-4-amine]
76 to 100% | 76 to 100% | 76 to 100% | 76 to 100% | 51 to 75% | 76 to 100% | 76 to 100% | 76 to 100% | – | 51 to 75% | 51 to 75% | 76 to 100% | 26 to 50% | Cc1c(-c2ccn(C(C)C)n2)sc2nc(-c3nccn3C)nc(NCCc3nnn[nH]3)c12 [Compound 46, N-(2-(1H-Tetrazol-5-yl)ethyl)-6-(1-isopropyl-1H-pyrazol-3-yl)-5-methyl-2-(1-methyl-1H-imidazol-2-yl)thieno[2,3-d]pyrimidin-4-amine]
